In US20190375708A1 (VenatoRx Pharmaceuticals, Inc., priority 2018, published 2019):

Key:
[1] = In vitro cytotoxicity assay (MTT cell viability) in HepG2 cells; type: cell-based, human; settings: human
Procedure, shortened: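 HepG2 seeded overnight, then 7-day compound exposure (30 μM–1.0 nM, half-log steps), 37 °C. MTT 3-4 h, DMSO solubilization, A492. % of vehicle → CC50, 4-PL fit.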

[2] = test system: HBV replication in HepAD38 cells; test: Anti-HBV replication assay in HepAD38 cells (QPCR of extracellular HBV DNA); type: cell-based, HBV (genotype D, serotype ayw); settings: Hepatitis B virus, 168 h, 7 days incubation, extracellular HBV DNA by QPCR, read-out: Anti-HBV EC50
Procedure, shortened: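 HepAD38 cells (HepG2 carrying tet-repressible HBV genotype D genome) induced by tetracycline withdrawal, treated 7 days at 37 °C with compound ([…], 1-log10 dilutions). Extracellular HBV DNA quantified by QPCR against a standard curve, normalised to DMSO; EC50 from 4-parameter fit.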

SMILES	CC50 at 7 days [1] [nM]	EC50 [2] [nM]
Cc1noc([C@@H](C)NC(=O)C(=O)c2c(Cl)c(C(=O)Nc3ccc(F)c(C)c3)c3n2CCCC3)n1 [Example 495, (R)-2-chloro-N-(4-fluoro-3-methylphenyl)-3-(2-((1-(3-methyl-1,2,4-oxadiazol-5-yl)ethyl)amino)-2-oxoacetyl)-5,6,7,8-tetrahydroindoliizine-1-carboxamide]	5000 to 30000	< 50
Cc1cc(NC(=O)c2c(C)c(C(=O)C(=O)NC3(C(N)=O)C4CC5CC(C4)CC3C5)n(C)c2C)ccc1F (stereo not shown) [Example 43, 5-(2-(((1r,3r,5r,7r)-2-carbamoyladamantan-2-yl)amino)-2-oxoacetyl)-N-(4-fluoro-3-methylphenyl)-1,2,4-trimethyl-1H-pyrrole-3-carboxamide]	500 to 4990	< 50
Cc1cc(NC(=O)c2c(C)c(C(=O)C(=O)NC3CCS(=O)(=O)CC3)n(C)c2C)ccc1F [Example 249, 5-(2-((1,1-dioxidotetrahydro-2H-thiopyran-4-yl)amino)-2-oxoacetyl)-N-(4-fluoro-3-methylphenyl)-1,2,4-trimethyl-1H-pyrrole-3-carboxamide]	5000 to 30000	< 50
Cc1cc(NC(=O)c2c(C)c(C(=O)C(=O)N[C@H]3COC[C@@H]3O)n3c2CCCC3)ccc1F [Example 439, N-(4-fluoro-3-methylphenyl)-3-(2-(((3S,4R)-4-hydroxytetrahydrofuran-3-yl)amino)-2-oxoacetyl)-2-methyl-5,6,7,8-tetrahydroindolizine-1-carboxamide]	> 30000	50 to 499
Cc1c(C(=O)Nc2ccc(F)c(F)c2)c2n(c1C(=O)C(=O)NCC(C)(C)CO)CCCC2 [Example 461, N-(3,4-difluorophenyl)-3-(2-((3-hydroxy-2,2-dimethylpropyl)amino)-2-oxoacetyl)-2-methyl-5,6,7,8-tetrahydroindolizine-1-carboxamide]	5000 to 30000	< 50
Cc1cnc(NC(=O)c2c(C)c(C(=O)C(=O)NC3(CO)CCC3)n3c2CCCC3)s1 [Example 750]	> 30000	50 to 499
Cc1cc(NC(=O)c2c(C)c(C(=O)C(=O)NC3(C(N)=O)CCCC3)n(C)c2C)ccc1F [Example 38, 5-(2-((1-carbamoylcyclopentyl)amino)-2-oxoacetyl)-N-(4-fluoro-3-methylphenyl)-1,2,4-trimethyl-1H-pyrrole-3-carboxamide]	> 30000	< 50
Cc1c(C(=O)NC2CCC(F)(F)C2)c2n(c1C(=O)C(=O)NC1(CO)CCC1)CCCC2 (stereo not shown) [Example 744, N-(3,3-difluorocyclopentyl)-3-(2-((1-(hydroxymethyl)cyclobutyl)amino)-2-oxoacetyl)-2-methyl-5,6,7,8-tetrahdyroindolizine-1-carboxamide]	> 30000	50 to 499
C#CCNC(=O)C(=O)c1c(C)c(C(=O)Nc2ccc(F)c(C)c2)c(C)n1C [Example 275, N-(4-fluoro-3-methylphenyl)-1,2,4-trimethyl-5-(2-oxo-2-(prop-2-yn-1-ylamino)acetyl)-1H-pyrrole-3-carboxamide]	> 30000	< 50
Cc1cc(NC(=O)c2c(C)c(C(=O)C(=O)N[C@H]3CCC[C@H]3O)n(C)c2C)ccc1F [Example 94, N-(4-fluoro-3-methylphenyl)-5-(2-(((1S,2R)-2-hydroxycyclopentyl)amino)-2-oxoacetyl)-1,2,4-trimethyl-1H-pyrrole-3-carboxamide]	> 30000	< 50
Cc1cc(NC(=O)c2c(Cl)c(C(=O)C(=O)NCC(C)(C)O)n3c2CCC3)cnc1F [Example 578, 6-chloro-N-(6-fluoro-5-methylpyridin-3-yl)-5-(2-((2-hydroxy-2-methylpropyl)amino)-2-oxoacetyl)-2,3-dihydro-1H-pyrrolizine-7-carboxamide]	> 30000	500 to 1000
Cc1c(C(=O)Nc2ccc(F)c(Cl)c2)c(C)n(C)c1C(=O)C(=O)N[C@]1(C)CC[C@@H](O)CC1 [Example 333, N-(3-chloro-4-fluorophenyl)-5-(2-(((1r,4r)-4-hydroxy-1-methylcyclohexyl)amino)-2-oxoacetyl)-1,2,4-trimethyl-1H-pyrrole-3-carboxamide]	> 30000	< 50
Cc1c(C(=O)Nc2ccnc(F)c2)c(C)n(C)c1C(=O)C(=O)N[C@H](C)C(F)(F)F [Example 170, (R)—N-(2-fluoropyridin-4-yl)-1,2,4-trimethyl-5-(2-oxo-2-((1,1,1-trifluoropropan-2-yl)amino)acetyl)-1H-pyrrole-3-carboxamide]	> 30000	< 50
Cc1c(C(=O)Nc2ccc(F)c(F)c2)c(C)n(C)c1C(=O)C(=O)N[C@]1(C)CC[C@@H](O)CC1 [Example 706, N-(3,4-difluorophenyl)-5-(2-(((1r,4r)-4-hydroxy-1-methylcyclohexxyl)amino)-2-oxoacetyl)-1,2,4-trimethyl-1H-pyrrole-3-carboxmaide]	> 30000	< 50
COCC(C)(C)NC(=O)C(=O)c1c(C)c(C(=O)Nc2cnc(F)c(C)c2)c(C)n1C [Example 167, N-(6-fluoro-5-methylpyridin-3-yl)-5-(2-((1-methyoxy-2-methylpropan-2-yl)amino)-2-oxoacetyl)-1,2,4-trimethyl-1H-pyrrole-3-carboxamide]	> 30000	< 50
Cc1cc(NC(=O)c2c(C)c(C(=O)C(=O)NC3(CO)CC(F)(F)C3)n(C)c2C)ccc1F [Example 126, 5-(2-((3,3-difluoro-1-(hydroxymethyl)cyclobutyl)amino)-2-oxoacetyl)-N-(4-fluoro-3-methylpheenyl)-1,2,4-trimethyl-1H-pyrrole-3-carboxamide]	> 30000	< 50
Cc1c(C(=O)Nc2cccc(C(F)F)c2)c(C)n(C)c1C(=O)C(=O)N[C@]1(C)C[C@@H](O)C1 [Example 720, N-(3-(difluoromethyl)phenyl)-5-(2-(((1r,3r)-3-hydroxy-1-methylcycloutyl)amino)-2-oxoacetyl)-1,2,4-trimethyl-1H-pyrrole-3-carboxamide]	> 30000	< 50
Cc1cc(NC(=O)c2c(C)c(C(=O)C(=O)NC3CCN(C)C(=O)C3)n(C)c2C)ccc1F (stereo not shown) [Example 609, N-(4-fluoro-3-methylphenyl)-1,2,4-trimethyl-5-(2-((1-methyl-2-oxopiperidin-4-yl)amino)-2-oxoacetyl)-1H-pyrrole-3-carboxamide]	> 30000	< 50
Cc1c(C(=O)Nc2ccc(F)c(F)c2)c(C)n(C)c1C(=O)C(=O)NC1(CO)CCCCC1 [Example 616, N-(3,4-difluorophenyl)-5-(2-((1-(hydroxymethyl)cyclohexyl)amino)-2-oxoacetyl)-1,2,4-trimethyl-1H-pyrrole-3-carboxamide]	> 30000	< 50
Cc1c(C(=O)Nc2ccnc(F)c2)c(C)n(C)c1C(=O)C(=O)NC1(C(F)(F)F)CCOCC1 [Example 271, N-(2-fluoropyridin-4-yl)-1,2,4-trimethyl-5-(2-oxo-2-((4-(trifluoromethyl)tetrahydro-2H-pyran-4-yl)amino)acetyl)-1H-pyrrole-3-carboxamide]	> 30000	< 50
